The values below come from patent publication US6514946B1, “Macrolide antibiotics and treatment and prophylaxis of pasteurellosis using the same” (Zaidan Hojin Biseibutsu Kagaku Kenkyu Kai, priority 1999, dated 2003).

One data set deals with S. aureus FDA209P. Nature of the data set: Minimum inhibition concentration (MIC), agar double dilution method. The note with it: Mueller hinton agar. Type of data set: cell-based, Staphylococcus aureus. As for the experimental part:
(§1) Test 1; Minimum Inhibition Concentration (MIC)
(§2) MIC was measured, based on the standard method of Japan Society of Chemotherapy, on a BHI agar medium (Brain heart-infusion agar, made by Difco Laboratories Inc.(USA)) with respect to Pasteurella and on a Mueller hinton agar medium (Mueller hinton agar, made by Difco, Laboratories Inc.(USA)) with respect to the other test bacteria in both cases according to the double dilution method.

Data set [1] deals with S. aureus Smith (virulent strain). The experiment in a line: microbe, parasite or virus in culture. As to conditions: S. aureus Smith (virulent strain); Mueller hinton agar. It counts as cell-based, Staphylococcus aureus. As for the experimental part: as §1, §2
For data set [2], the system named is Bacillus subtilis NRRL B-558. Nature of the data set: Minimum inhibition concentration (MIC), agar double dilution method. It counts as cell-based. As to conditions: Bacillus subtilis NRRL B-558; Mueller hinton agar. As for the experimental part: as §1, §2
For data set [3], the system named is Enterobacter aerogenes ATCC13048. The data set is described as above. It counts as cell-based. As to conditions: Mueller hinton agar. As for the experimental part: as §1, §2
In a further data set the test system is Escherichia coli NIHJ. The data set is described as above. It counts as cell-based. The note with it: Mueller hinton agar. Here is the method: as §1, §2
Data set [4] deals with Klebsiella pneumoniae PCI602. Described as above. It counts as cell-based. As to conditions: Mueller hinton agar. Here is the method: as §1, §2
The subject of data set [5] is Micrococcus luteus PCI1001. Described as above. It counts as cell-based. The note with it: Mueller hinton agar. As for the experimental part: as §1, §2
In data set [6] the test system is Pasteurella haemolytica BBPO101 N791. The data set is described as above. Type of data set: cell-based. The note with it: Pasteurella haemolytica BBPO101 N791, strain from cattle; BHI agar. Here is the method: as §1, §2
The next data set deals with Proteus vulgaris OX19. Described as above. As to conditions: Mueller hinton agar. Type of data set: cell-based. Here is the method:
as §1, §2

The subject of data set [7] is Salmonella enteritidis 1891. The description is as above. It counts as cell-based. As to conditions: Mueller hinton agar. As for the experimental part: as §1, §2
For a further data set, the system named is Serratia marcescens. Described as above. Type of data set: cell-based. The note with it: Mueller hinton agar. As for the experimental part:
as §1, §2

In data set [8] the test system is Shigella dysenteriae JS11910. Described as above. It counts as cell-based. As to conditions: Shigella dysenteriae JS11910; Mueller hinton agar. As for the experimental part: as §1, §2
Data set [9] relates to Staphylococcus aureus 193. The description is as above. Type of data set: cell-based. The note with it: Mueller hinton agar. As for the experimental part: as §1, §2
Another data set has as its system E. coli K-12 R-5. The description is as above. It counts as cell-based, Escherichia coli. The note with it: Mueller hinton agar. Here is the method:
as §1, §2

The subject of data set [10] is Past haemolytica BAPO103 S801. Described as above. It counts as cell-based, Pasteurella haemolytica. As to conditions: Past haemolytica BAPO103 S801, strain from poultry; BHI agar. As for the experimental part: as §1, §2
Data set [11] deals with Past haemolytica BBPO102 N811. The data set is described as above. Type of data set: cell-based, Pasteurella haemolytica. As to conditions: Past haemolytica BBPO102 N811, strain from cattle; BHI agar. As for the experimental part: as §1, §2
Data set [12] relates to Past. multocida BOPO305 M-17. Described as above. It counts as cell-based, Pasteurella multocida. The note with it: Past. multocida BOPO305 M-17, strain from a sheep; BHI agar. Here is the method:
as §1, §2

Data set [13] has as its system Past. multocida BSPO302 No. 6. Described as above. It counts as cell-based, Pasteurella multocida. The note with it: Past. multocida BSPO302 No. 6, strain from a pig; BHI agar. Here is the method:
as §1, §2

The subject of a further data set is ICR mice. The experiment in a line: Toxicity test, intravenous or subcutaneous injection. It counts as in vivo.
The mark [14] stands for this setting: intravenous injection, 0.25 mg/mouse.
Setting [15] is: intravenous injection, 0.5 mg/mouse.
[16] abbreviates: intravenous injection, 1.0 mg/mouse.
[17] abbreviates: subcutaneous injection, 1.0 mg/mouse.
[18] abbreviates: subcutaneous injection, 2.0 mg/mouse.
The mark [19] stands for this setting: subcutaneous injection, 3.0 mg/mouse.
The mark [20] stands for this setting: subcutaneous injection, 4.0 mg/mouse.

Converted amounts (≈) assume the structure as drawn. Some results are limits rather than exact numbers.

For the compound `CCCCCCN(CCCCCC)CC[C@H]1C[C@@H](C)C(=O)/C=C/C(C)=C/[C@H](CN(CCCCCC)CCCCCC)[C@@H](CC)OC(=O)C[C@@H](O)[C@H](C)[C@H]1O[C@@H]1O[C@H](C)C(O)C(N(C)C)C1O` (some centres unmarked) [Compound C-2], the MIC in the data set with S. aureus FDA209P is 6.25 µg/mL (≈ 6.69 µM); in [1], 6.25 µg/mL (≈ 6.69 µM); in [2], 12.5 µg/mL (≈ 13.4 µM); in [3] it was greater than 100 µg/mL; in the data set on Escherichia coli NIHJ, greater than 100 µg/mL; in data set [4], greater than 100 µg/mL. The MIC is 6.25 µg/mL (≈ 6.69 µM) in data set [5]; 12.5 µg/mL (≈ 13.4 µM) in data set [6]; greater than 100 µg/mL in the data set on Proteus vulgaris OX19; greater than 100 µg/mL in data set [7]; greater than 100 µg/mL against Serratia marcescens; greater than 100 µg/mL in [8]. Besides, the MIC in data set [9] was 3.13 µg/mL (≈ 3.35 µM); in the data set with E. coli K-12 R-5, greater than 100 µg/mL; in data set [10] it was 100 µg/mL (≈ 107 µM); in data set [11], 12.5 µg/mL (≈ 13.4 µM); in data set [12] it was 50 µg/mL (≈ 53.5 µM); in data set [13] it was 50 µg/mL (≈ 53.5 µM).
For `CC[C@H]1OC(=O)C[C@@H](O)[C@H](C)[C@@H](O[C@@H]2O[C@H](C)C(O)C(N(C)C)C2O)[C@@H](CCN(Cc2ccccc2)Cc2ccccc2)C[C@@H](C)C(=O)/C=C/C(C)=C/[C@@H]1CN(Cc1ccccc1)Cc1ccccc1` (some centres unmarked) [Compound C-5], the MIC against S. aureus FDA209P is 12.5 µg/mL (≈ 13 µM); in data set [1], 50 µg/mL (≈ 52.2 µM); in data set [2], 50 µg/mL (≈ 52.2 µM); in data set [3] it was greater than 100 µg/mL; in the data set on Escherichia coli NIHJ, greater than 100 µg/mL; in data set [4] it was greater than 100 µg/mL. The MIC is 6.25 µg/mL (≈ 6.52 µM) in data set [5]; 50 µg/mL (≈ 52.2 µM) in data set [6]; greater than 100 µg/mL in the data set on Proteus vulgaris OX19; greater than 100 µg/mL in [7]; 100 µg/mL (≈ 104 µM) with Serratia marcescens; greater than 100 µg/mL in data set [8]. For the same compound, the MIC in data set [9] is 12.5 µg/mL (≈ 13 µM); in the data set on E. coli K-12 R-5 it was greater than 100 µg/mL; in data set [10], greater than 100 µg/mL; in data set [11] it was 50 µg/mL (≈ 52.2 µM); in data set [12] it was greater than 100 µg/mL; in data set [13], greater than 100 µg/mL.
With `CC[C@H]1OC(=O)C[C@@H](O)[C@H](C)[C@@H](O[C@@H]2O[C@H](C)C(O)C(N(C)C)C2O)[C@@H](CCN2CCCCCCC2)C[C@@H](C)C(=O)/C=C/C(C)=C/[C@@H]1CN1CCCCCCC1` (some centres unmarked) [Compound C-8], the MIC worked out at 0.78 µg/mL (≈ 0.987 µM) with S. aureus FDA209P; 1.56 µg/mL (≈ 1.97 µM) in data set [1]; 3.13 µg/mL (≈ 3.96 µM) in data set [2]; 6.25 µg/mL (≈ 7.91 µM) in [3]; 1.56 µg/mL (≈ 1.97 µM) against Escherichia coli NIHJ; 3.13 µg/mL (≈ 3.96 µM) in data set [4]. Besides, the MIC came to 0.20 µg/mL (≈ 0.253 µM) in [5]; 0.20 µg/mL (≈ 0.253 µM) in data set [6]; 6.25 µg/mL (≈ 7.91 µM) against Proteus vulgaris OX19; 0.78 µg/mL (≈ 0.987 µM) in [7]; 12.5 µg/mL (≈ 15.8 µM) against Serratia marcescens; 0.78 µg/mL (≈ 0.987 µM) in data set [8]. Also, the MIC in data set [9] was 0.78 µg/mL (≈ 0.987 µM); with E. coli K-12 R-5, 1.56 µg/mL (≈ 1.97 µM); in data set [10], 1.56 µg/mL (≈ 1.97 µM); in data set [11], 0.39 µg/mL (≈ 0.494 µM); in data set [12], 0.78 µg/mL (≈ 0.987 µM); in [13], 0.39 µg/mL (≈ 0.494 µM). The Dissection finding result is “no abnormal finding” in the data set on ICR mice (setting [14]); “no abnormal finding” in the data set with ICR mice (setting [15]); “no abnormal finding” in the data set with ICR mice (setting [16]); “Sores and alopecia at the administration part” with ICR mice (setting [17]); “Sores and alopecia at the administration part” in the data set on ICR mice (setting [18]); “Sores and alopecia at the administration part” in the data set with ICR mice (setting [19]). In the data set with ICR mice (setting [20]), the Dissection finding result was “Sores and alopecia at the administration part”. Further, the Surviving number in the data set on ICR mice (setting [14]) is recorded as 3/3; in the data set with ICR mice (setting [15]) it was 3/3; in the data set on ICR mice (setting [16]), 3/3; in the data set on ICR mice (intravenous injection, 1.5 mg/mouse), 0/1 (immediate death); with ICR mice (intravenous injection, 2.0 mg/mouse), 0/3 (immediate death); in the data set with ICR mice (intravenous injection, 4.0 mg/mouse), 0/1 (immediate death). The “Surviving number / number of used animals” value in the data set with ICR mice (setting [17]), with ICR mice (setting [18]), with ICR mice (setting [19]) and in the data set with ICR mice (setting [20]) was 2/2 throughout.
